Laboratory results from patent publication US20130266636A1, “METHODS FOR BLOCKING CELL PROLIFERATION AND TREATING DISEASES AND CONDITIONS RESPONSIVE TO CELL GROWTH INHIBITION” (THE REGENTS OF THE UNIVERSITY OF CALIFORNIA, priority 2010, published 2013).

Key:
HCT-116 cells = experiment: G2/M arrest in HCT-116 cells expressing WT or S338D CRAF; type: cell-based, human; settings: 1 μM KG5, 18 hours
phospho-S338 CRAF = target: T1, phospho-S338 CRAF (Homo sapiens, UniProt P04049); experiment: Phospho-S338 CRAF staining in orthotopic brain tumor xenografts; type: in vivo, mice; settings: systemic KG5 50 mg/Kg, 3 days
T1 construct: phospho-S338 CRAF in orthotopic brain tumor xenografts untreated or treated systemically with KG5; from tissue; host or cells: orthotopic U-87 glioblastoma xenografts in the brain of nude mice
T1 sequence (P04049 whole entry): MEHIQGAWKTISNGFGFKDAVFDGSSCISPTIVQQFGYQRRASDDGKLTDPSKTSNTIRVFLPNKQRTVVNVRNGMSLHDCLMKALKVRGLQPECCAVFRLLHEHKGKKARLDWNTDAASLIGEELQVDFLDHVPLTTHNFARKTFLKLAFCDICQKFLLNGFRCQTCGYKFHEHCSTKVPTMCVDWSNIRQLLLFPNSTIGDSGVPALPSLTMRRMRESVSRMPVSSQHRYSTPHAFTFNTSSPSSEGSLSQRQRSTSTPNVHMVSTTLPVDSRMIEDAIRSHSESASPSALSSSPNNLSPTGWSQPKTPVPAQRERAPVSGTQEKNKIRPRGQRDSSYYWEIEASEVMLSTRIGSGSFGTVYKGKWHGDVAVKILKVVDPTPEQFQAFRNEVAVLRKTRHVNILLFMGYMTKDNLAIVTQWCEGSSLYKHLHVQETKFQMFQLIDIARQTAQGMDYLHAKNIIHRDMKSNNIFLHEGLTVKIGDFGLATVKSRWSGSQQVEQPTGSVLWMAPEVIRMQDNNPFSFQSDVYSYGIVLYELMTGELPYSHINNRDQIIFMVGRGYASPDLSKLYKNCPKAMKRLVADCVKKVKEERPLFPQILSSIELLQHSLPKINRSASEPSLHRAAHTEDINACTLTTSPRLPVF
Description: FIG. 41. Phospho-5338 CRAF is highly expressed in tumors and can be blocked by an allosteric RAF inhibitor: FIG. 41(a) Immunohistochemical staining of phospho-S338 CRAF in normal human brain and human glioblastoma tissues. Scale bar, 100 μm. FIG. 41(b) Immunohistochemical staining of phospho-S338 CRAF in orthotopic brain tumor xenografts untreated or treated systemically with KG5 (50 mg/Kg) for 3 days. Scale bar, 50 p.m. FIG. 42. Phospho-5338 CRAF promotes mitosis: FIG. 42(a) Quantification of WT and CRAF−/− cells in the G1, S and G2/M phases of the cell cycle. Data are representative of three independent experiments. […] Cells in G2/M were quantified by flow cytometry. […] FIG. 42(d) Cells at pro-metaphase were quantified using confocal microscopy. […] FIG. 42(e) HCT-116 cells were transfected with control or CRAF siRNAs and cells in G2/M were quantified by flow cytometry. […] Lysates of these cells were analyzed for CRAF expression by immunoblotting (inset). […] Quantification of cells in G2/M was performed by flow cytometry. […]
Tumors were generated by injection of RFP-labeled U-87 human glioblastoma cells (10^5 tumorcells in 2 μl of sterile PBS) into the brain of 6-8 week old female nude mice. […] Brains were harvested at day 15 and fluorescence images recorded using the IVIS-200™ imaging system (Xenogen Corp., Hopkinton, Mass.). […]

Structure (SMILES): CSc1nc(N)cc(Oc2ccc(-c3nnc(Nc4cccc(C(F)(F)F)c4)[nH]3)cc2)n1 [KG5]
- G2/M arrest in cells expressing phospho-mimetic S338D CRAF (HCT-116 cells): showed resistance to KG5
- phospho-S338 CRAF in orthotopic brain tumor tissues (phospho-S338 CRAF): qualitative decrease in phospho-5338 RAF
